Source: publication PMC7377239, “Cardiovascular Effects of Polychlorinated Biphenyls and Their Major Metabolites” (Environmental Health Perspectives, 2020)
Structures can show the parent of a compound that is named as a salt. Where two headings read alike, the source gives them in different places.

Tested on: iCell cardiomyocytes (human iPSC-derived cardiomyocytes)
Assay: High-content imaging of cytotoxicity and mitochondrial integrity in iPSC-CMs
Format: cell-based
Conditions: for viability at 0.01 µM / activity at 0.01 µM / viability at 0.1 µM / activity at 0.1 µM / viability at 1 µM / activity at 1 µM / viability at 10 µM / activity at 10 µM / viability at 100 µM / activity at 100 µM / minimal effective concentration: Homo sapiens; for viability at 0.01 µM / activity at 0.01 µM / viability at 0.1 µM / activity at 0.1 µM / viability at 1 µM / activity at 1 µM / viability at 10 µM / activity at 10 µM / viability at 100 µM / activity at 100 µM / cm.mii.90min / cm.mito.90min / cm.mii.24hrs / cm.mito.24hrs: 0.00 µM = 100.00
Procedure, shortened: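 This assay measured cytotoxicity and mitochondrial integrity in iPSC cardiomyocytes held in 40μL maintenance medium. After compound exposure, a 2× staining solution with Hoechst 33342 (4μg/mL) and MitoTracker™ Orange (0.4μM) was applied for 15 min at 37°C. Cells were washed, fixed with 3.7% formaldehyde, imaged on DAPI and Cy3 channels, and scored in MetaXpress®.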

[1] = Cardiomyocyte, 1.5 h, 0.01 µM, read-out: cm.cam.90min
[2] = Cardiomyocyte, 1.5 h, 0.01 µM, read-out: cm.mii.90min
[3] = Cardiomyocyte, 1.5 h, 0.01 µM, read-out: cm.mito.90min
[4] = Cardiomyocyte, 1.5 h, 0.01 µM, read-out: cm.tc.90min
[5] = Cardiomyocyte, 1.5 h, 0.10 µM, read-out: cm.cam.90min
[6] = Cardiomyocyte, 1.5 h, 0.10 µM, read-out: cm.mii.90min
[7] = Cardiomyocyte, 1.5 h, 0.10 µM, read-out: cm.mito.90min
[8] = Cardiomyocyte, 1.5 h, 0.10 µM, read-out: cm.tc.90min
[9] = Cardiomyocyte, 1.5 h, 1.00 µM, read-out: cm.cam.90min
[10] = Cardiomyocyte, 1.5 h, 1.00 µM, read-out: cm.mii.90min
[11] = Cardiomyocyte, 1.5 h, 1.00 µM, read-out: cm.mito.90min
[12] = Cardiomyocyte, 1.5 h, 1.00 µM, read-out: cm.tc.90min
[13] = Cardiomyocyte, 1.5 h, 10.00 µM, read-out: cm.cam.90min
[14] = Cardiomyocyte, 1.5 h, 10.00 µM, read-out: cm.mii.90min
[15] = Cardiomyocyte, 1.5 h, 10.00 µM, read-out: cm.mito.90min
[16] = Cardiomyocyte, 1.5 h, 10.00 µM, read-out: cm.tc.90min
[17] = Cardiomyocyte, 1.5 h, 100.00 µM, read-out: cm.cam.90min
[18] = Cardiomyocyte, 1.5 h, 100.00 µM, read-out: cm.mii.90min
[19] = Cardiomyocyte, 1.5 h, 100.00 µM, read-out: cm.mito.90min
[20] = Cardiomyocyte, 1.5 h, 100.00 µM, read-out: cm.tc.90min
[21] = Cardiomyocyte, 24 h, 0.01 µM, read-out: cm.cam.24hrs
[22] = Cardiomyocyte, 24 h, 0.01 µM, read-out: cm.mii.24hrs
[23] = Cardiomyocyte, 24 h, 0.01 µM, read-out: cm.mito.24hrs
[24] = Cardiomyocyte, 24 h, 0.01 µM, read-out: cm.tc.24hrs
[25] = Cardiomyocyte, 24 h, 0.10 µM, read-out: cm.cam.24hrs
[26] = Cardiomyocyte, 24 h, 0.10 µM, read-out: cm.mii.24hrs
[27] = Cardiomyocyte, 24 h, 0.10 µM, read-out: cm.mito.24hrs
[28] = Cardiomyocyte, 24 h, 0.10 µM, read-out: cm.tc.24hrs
[29] = Cardiomyocyte, 24 h, 1.00 µM, read-out: cm.cam.24hrs
[30] = Cardiomyocyte, 24 h, 1.00 µM, read-out: cm.mii.24hrs
[31] = Cardiomyocyte, 24 h, 1.00 µM, read-out: cm.mito.24hrs
[32] = Cardiomyocyte, 24 h, 1.00 µM, read-out: cm.tc.24hrs
[33] = Cardiomyocyte, 24 h, 10.00 µM, read-out: cm.cam.24hrs
[34] = Cardiomyocyte, 24 h, 10.00 µM, read-out: cm.mii.24hrs
[35] = Cardiomyocyte, 24 h, 10.00 µM, read-out: cm.mito.24hrs
[36] = Cardiomyocyte, 24 h, 10.00 µM, read-out: cm.tc.24hrs
[37] = Cardiomyocyte, 24 h, 100.00 µM, read-out: cm.cam.24hrs
[38] = Cardiomyocyte, 24 h, 100.00 µM, read-out: cm.mii.24hrs
[39] = Cardiomyocyte, 24 h, 100.00 µM, read-out: cm.mito.24hrs
[40] = Cardiomyocyte, 24 h, 100.00 µM, read-out: cm.tc.24hrs
[41] = iPSC-CM, 1.5 h, iPSC-CM, read-out: cm.cam.90min POD
[42] = iPSC-CM, 1.5 h, iPSC-CM, read-out: cm.mii.90min POD
[43] = iPSC-CM, 1.5 h, iPSC-CM, read-out: cm.mito.90min POD
[44] = iPSC-CM, 1.5 h, iPSC-CM, read-out: cm.tc.90min POD
[45] = iPSC-CM, 24 h, iPSC-CM, read-out: cm.cam.24hrs POD
[46] = iPSC-CM, 24 h, iPSC-CM, read-out: cm.mii.24hrs POD
[47] = iPSC-CM, 24 h, iPSC-CM, read-out: cm.mito.24hrs POD
[48] = iPSC-CM, 24 h, iPSC-CM, read-out: cm.tc.24hrs POD
[49] = Cardiomyocyte, 1.5 h, cardiomyocytes (cm), cam, 90 min, read-out: POD cm.cam.90min
[50] = Cardiomyocyte, 1.5 h, cardiomyocytes (cm), mii, 90 min, read-out: POD cm.mii.90min
[51] = Cardiomyocyte, 1.5 h, cardiomyocytes (cm), mito, 90 min, read-out: POD cm.mito.90min
[52] = Cardiomyocyte, 1.5 h, cardiomyocytes (cm), tc, 90 min, read-out: POD cm.tc.90min
[53] = Cardiomyocyte, 24 h, cardiomyocytes (cm), cam, 24 hrs, read-out: POD cm.cam.24hrs
[54] = Cardiomyocyte, 24 h, cardiomyocytes (cm), mii, 24 hrs, read-out: POD cm.mii.24hrs
[55] = Cardiomyocyte, 24 h, cardiomyocytes (cm), mito, 24 hrs, read-out: POD cm.mito.24hrs
[56] = Cardiomyocyte, 24 h, cardiomyocytes (cm), tc, 24 hrs, read-out: POD cm.tc.24hrs

SMILES: Clc1cccc(-c2cccc(Cl)c2)c1 [PCB11]
- viability at 0.01 µM [1]: 99%
- activity at 0.01 µM [2]: 116%
- activity at 0.01 µM [3]: 99.1%
- viability at 0.01 µM [4]: 99%
- viability at 0.1 µM [5]: 97.7%
- activity at 0.1 µM [6]: 102%
- activity at 0.1 µM [7]: 97.7%
- viability at 0.1 µM [8]: 97.7%
- viability at 1 µM [9]: 101%
- activity at 1 µM [10]: 98.3%
- activity at 1 µM [11]: 101%
- viability at 1 µM [12]: 101%
- viability at 10 µM [13]: 99.5%
- activity at 10 µM [14]: 105%
- activity at 10 µM [15]: 99.5%
- viability at 10 µM [16]: 99.3%
- viability at 100 µM [17]: 1.03%
- activity at 100 µM [18]: 152%
- activity at 100 µM [19]: 0.83%
- viability at 100 µM [20]: 1.06%
- viability at 0.01 µM [21]: 103%
- activity at 0.01 µM [22]: 93.5%
- activity at 0.01 µM [23]: 102%
- viability at 0.01 µM [24]: 102%
- viability at 0.1 µM [25]: 99.5%
- activity at 0.1 µM [26]: 93%
- activity at 0.1 µM [27]: 98.7%
- viability at 0.1 µM [28]: 99.3%
- viability at 1 µM [29]: 101%
- activity at 1 µM [30]: 93.7%
- activity at 1 µM [31]: 98.5%
- viability at 1 µM [32]: 101%
- viability at 10 µM [33]: 103%
- activity at 10 µM [34]: 85.7%
- activity at 10 µM [35]: 102%
- viability at 10 µM [36]: 103%
- viability at 100 µM [37]: 0.64%
- activity at 100 µM [38]: 31.3%
- activity at 100 µM [39]: 0.24%
- viability at 100 µM [40]: 0.62%
- minimal effective concentration [41]: 18.6 µM
- minimal effective concentration [42]: 12.4 µM
- minimal effective concentration [43]: 14.2 µM
- minimal effective concentration [44]: 16.7 µM
- minimal effective concentration [45]: 35.2 µM
- minimal effective concentration [46]: 9.6 µM
- minimal effective concentration [47]: 33.1 µM
- minimal effective concentration [48]: 35.1 µM

SMILES: O=S(=O)(O)Oc1ccc(-c2cccc(Cl)c2)cc1Cl [4-yl PCB 11 sulfate]
- viability at 0.01 µM [1]: 100%
- activity at 0.01 µM [2]: 101%
- activity at 0.01 µM [3]: 99.5%
- viability at 0.01 µM [4]: 100%
- viability at 0.1 µM [5]: 99.7%
- activity at 0.1 µM [6]: 117%
- activity at 0.1 µM [7]: 99.5%
- viability at 0.1 µM [8]: 99.6%
- viability at 1 µM [9]: 101%
- activity at 1 µM [10]: 114%
- activity at 1 µM [11]: 101%
- viability at 1 µM [12]: 101%
- viability at 10 µM [13]: 98.7%
- activity at 10 µM [14]: 103%
- activity at 10 µM [15]: 98.5%
- viability at 10 µM [16]: 98.6%
- viability at 100 µM [17]: 99.5%
- activity at 100 µM [18]: 108%
- activity at 100 µM [19]: 99.1%
- viability at 100 µM [20]: 99.5%
- viability at 0.01 µM [21]: 88.6%
- activity at 0.01 µM [22]: 106%
- activity at 0.01 µM [23]: 87.2%
- viability at 0.01 µM [24]: 89.5%
- viability at 0.1 µM [25]: 101%
- activity at 0.1 µM [26]: 114%
- activity at 0.1 µM [27]: 102%
- viability at 0.1 µM [28]: 102%
- viability at 1 µM [29]: 102%
- activity at 1 µM [30]: 101%
- activity at 1 µM [31]: 101%
- viability at 1 µM [32]: 102%
- viability at 10 µM [33]: 85.6%
- activity at 10 µM [34]: 102%
- activity at 10 µM [35]: 82.8%
- viability at 10 µM [36]: 86.3%
- viability at 100 µM [37]: 10.5%
- activity at 100 µM [38]: 48.4%
- activity at 100 µM [39]: 5.02%
- viability at 100 µM [40]: 10.7%
- minimal effective concentration [41]: 100 µM
- minimal effective concentration [42]: 100 µM
- minimal effective concentration [43]: 100 µM
- minimal effective concentration [44]: 100 µM
- minimal effective concentration [45]: 5.91 µM
- minimal effective concentration [46]: 49.2 µM
- minimal effective concentration [47]: 7.07 µM
- minimal effective concentration [48]: 6.38 µM

SMILES: COc1ccc(-c2cccc(Cl)c2)cc1Cl [4-OMe-PCB 11, 4-methoxy-3,3′-dichlorobiphenyl]
- minimal effective concentration [49]: 33.8 µM
- minimal effective concentration [50]: 62.2 µM
- minimal effective concentration [51]: 29.1 µM
- minimal effective concentration [52]: 28.6 µM
- minimal effective concentration [53]: 37.2 µM
- minimal effective concentration [54]: 10.8 µM
- minimal effective concentration [55]: 31.1 µM
- minimal effective concentration [56]: 33.4 µM

SMILES: Clc1ccc(Cl)c(-c2c(Cl)ccc(Cl)c2Cl)c1Cl [(-)-PCB 136, 2,2′,3,3′,6,6′-hexachlorobiphenyl]
- cm.mii.90min (0.01 µM): 112.68
- cm.mito.90min (0.01 µM): 96.45
- cm.mii.24hrs (0.01 µM): 102.85
- cm.mito.24hrs (0.01 µM): 101.32
- cm.mii.90min (0.10 µM): 114.32
- cm.mito.90min (0.10 µM): 99.06
- cm.mii.24hrs (0.10 µM): 75.71
- cm.mito.24hrs (0.10 µM): 97.62
- cm.mii.90min (1.00 µM): 108.72
- cm.mito.90min (1.00 µM): 99.64
- cm.mii.24hrs (1.00 µM): 98.56
- cm.mito.24hrs (1.00 µM): 95.39
- cm.mii.90min (10.00 µM): 109.00
- cm.mito.90min (10.00 µM): 96.91
- cm.mii.24hrs (10.00 µM): 82.93
- cm.mito.24hrs (10.00 µM): 97.40
- cm.mii.90min (100.00 µM): 5.98
- cm.mito.90min (100.00 µM): 0.07
- cm.mii.24hrs (100.00 µM): 87.76
- cm.mito.24hrs (100.00 µM): 0.79

SMILES: O=S(=O)(O)Oc1ccc(-c2cccc(Cl)c2)cc1Cl [4-PCB 11 sulfate]
- minimal effective concentration [49]: 100 µM
- minimal effective concentration [50]: 100 µM
- minimal effective concentration [51]: 100 µM
- minimal effective concentration [52]: 100 µM
- minimal effective concentration [53]: 5.91 µM
- minimal effective concentration [54]: 49.2 µM
- minimal effective concentration [55]: 7.07 µM
- minimal effective concentration [56]: 6.38 µM
